Counter-ions that a name gives are not always drawn. Like-named read-outs stand apart in the source and are kept apart here. Blank lines part the entries; values can stand above or below the compound they belong to.
Experiments:
ERRα [1] = test: ERR luciferase reporter gene assay, antagonist mode; type: cell-based, human; details: for AC50 ERR↓: antagonist mode, 0 = inactive or inconclusive; for IC50 / AC50: Homo sapiens; for IC50: read-out: ERRα (Antagonist) IC50; for AC50: read-out: AC50 ERR↓
PGC-1α/ERRα [2] = test: PGC/ERR luciferase reporter gene assay, antagonist mode; type: cell-based, human; details: for AC50 PGC/ERR ↓: antagonist mode, 0 = inactive or inconclusive; for AC50 / IC50: Homo sapiens; for AC50: read-out: AC50 PGC/ERR ↓; for IC50: read-out: PGC-1α/ERRα (Antagonist) IC50
ERRα [3] = test: ERR luciferase reporter gene assay, agonist mode; type: cell-based, human; details: for AC50: read-out: AC50 ERR ↑; for EC50: read-out: ERRα (Agonist) EC50
PGC-1α/ERRα [4] = test: PGC/ERR luciferase reporter gene assay, agonist mode; type: cell-based, human; details: Homo sapiens; for AC50: read-out: AC50 PGC-ERR ↑; for EC50: read-out: PGC-1α/ERRα (Agonist) EC50
[5] = tested on: aryl hydrocarbon receptor (AhR); details: cited from earlier work
[6] = tested on: ERR and PGC/ERR cell lines; test: Cell viability; details: agonist mode, ERR and PGC/ERR lines (Fig. 3A,B)
[7] = LOPAC qHTS, dash = inconclusive or no activity

SMILES: C=CCNc1ncnc2ccc(Br)cc12 [SMER28]
- AC50 ERR↓ (ERRα [1]): 5.03 log10(M)*–1
- AC50 PGC/ERR ↓ (PGC-1α/ERRα [2]): 4.98 log10(M)*–1

SMILES: O=c1c(-c2ccc(O)cc2)coc2cc(O)ccc12 [Daidzein]
- AC50 (ERRα [3]; Homo sapiens): 13.2 µM
- EC50 (ERRα [3]; Homo sapiens): 13.3 µM
- AC50 (PGC-1α/ERRα [4]): 20.9 µM

SMILES: O=c1cc(-c2ccc(O)cc2)oc2cc(O)cc(O)c12 [Apigenin]
- AC50 (PGC-1α/ERRα [4]): 2.34 µM
- AC50 AhR ↑ [5]: 5.28 log10(M)*–1

SMILES: O=C1Nc2ccccc2/C1=C1/Nc2ccccc2/C1=N\O [Indirubin-3′-oxime]
- EC50 (ERRα [3]; [7]): 2.66 µM

SMILES: C[C@H]1CCC/C=C/[C@@H]2C[C@H](O)C[C@H]2[C@H](O)/C=C/C(=O)O1 [Brefeldin A]
- IC50 (ERRα [1]): 1.5 µM

SMILES: CCCCCCCCCCCCCC(=O)O[C@@H]1[C@@H](C)[C@@]2(O)[C@@H](C=C(CO)C[C@]3(O)C(=O)C(C)=C[C@@H]23)[C@@H]2C(C)(C)[C@]12OC(C)=O [Phorbol 12-myristate 13-acetate]
- AC50 (ERRα [3]; Homo sapiens): 0.00832 µM
- EC50 (ERRα [3]; Homo sapiens): 0.01 µM
- AC50 (PGC-1α/ERRα [4]): 0.00661 µM
- EC50 (PGC-1α/ERRα [4]): 0.01 µM
- cytotoxicity at concentrations of outfitted points of agonist curves [6]: cytotoxicity was seen at the concentration accompanying the outfitted points

SMILES: Fc1cccc(C=NN=Cc2cccc(F)c2)c1 [3,3 ′-Difluorobenzaldazine]
- EC50 (ERRα [3]; [7]): 13.3 µM

SMILES: Nc1nc(N)c2nc(CNc3ccc(C(=O)N[C@@H](CCC(=O)O)C(=O)O)cc3)cnc2n1 [Aminopterin]
- AC50 (ERRα [1]): 0.0468 µM
- IC50 (ERRα [1]): 0.05 µM
- AC50 (PGC-1α/ERRα [2]): 0.0589 µM
- IC50 (PGC-1α/ERRα [2]): 0.06 µM

SMILES: C=C[C@@]1(C)CC(=O)[C@]2(O)[C@@]3(C)[C@@H](O)CCC(C)(C)[C@@H]3[C@H](O)[C@H](OC(C)=O)[C@@]2(C)O1 [Forskolin]
- EC50 (PGC-1α/ERRα [4]): 1.33 µM

SMILES: CC[N+](CC)(CC)CCOc1ccc(/C=C/c2ccccc2)cc1 [MG 624]
- AC50 (ERRα [1]): 10.5 µM
- IC50 (ERRα [1]): 9.44 µM
- AC50 (PGC-1α/ERRα [2]): 11.7 µM
- IC50 (PGC-1α/ERRα [2]): 12.6 µM

SMILES: Cc1cccc(C#Cc2ccccc2)n1 [6-Methyl-2-(phenylethynyl)pyridine HCl]
- EC50 (ERRα [3]; Homo sapiens): 13.3 µM

SMILES: Brc1c(Br)c(Br)c2[nH]cnc2c1Br [4,5,6,7-Tetrabromobenz-imidazole]
- IC50 (ERRα [1]): 16.8 µM

SMILES: CC(=O)[C@H]1CC[C@H]2[C@@H]3CCC4=CC(=O)CC[C@]4(C)[C@H]3CC[C@]12C [Progesterone]
- IC50 (ERRα [1]): 11.9 µM

SMILES: O=C(/C=C/c1ccc(O)c(O)c1)OCCc1ccccc1 [Caffeic acid phenethyl ester]
- EC50 (PGC-1α/ERRα [4]): 11.9 µM

SMILES: COc1ccc(-c2cc3nccn3c(Nc3ncccc3C(N)=O)n2)cc1OC.Cl.O [BAY 61-3606 hydrochloride hydrate]
- AC50 ERR↓ (ERRα [1]): 5.53 log10(M)*–1
- AC50 PGC/ERR ↓ (PGC-1α/ERRα [2]): 5.63 log10(M)*–1

SMILES: CCN1/C(=C/C(C)=O)Sc2ccc(OC)cc21 [TG003]
- AC50 ERR↓ (ERRα [1]): 4.93 log10(M)*–1
- AC50 PGC/ERR ↓ (PGC-1α/ERRα [2]): 5.23 log10(M)*–1

SMILES: COc1ccc(/C=C2\COc3ccc(C)cc3C2=O)cc1O [IMS2186]
- EC50 (ERRα [3]; [7]): 1.06 µM

SMILES: COC(=O)Nc1nc2ccc(C(=O)c3cccs3)cc2[nH]1 [Nocodazole]
- EC50 (PGC-1α/ERRα [4]): 1.88 µM

SMILES: OCCN(CCO)c1nc(N2CCCCC2)c2nc(N(CCO)CCO)nc(N3CCCCC3)c2n1 [Dipyridamole]
- IC50 (ERRα [1]): 11.9 µM

Further lines, with some results ahead:

- IC50 (ERRα [1]): 23.7 µM
SMILES: CC#C[C@]1(O)CC[C@H]2[C@@H]3CCC4=CC(=O)CCC4=C3[C@@H](c3ccc(N(C)C)cc3)C[C@@]21C [Mifepristone]

- EC50 (ERRα [3]; Homo sapiens): 1.68 µM
SMILES: COc1ccc(/C=C/C(=O)Nc2ccccc2C(=O)O)cc1OC [Tranilast]

- EC50 (ERRα [3]; [7]): 13.3 µM
SMILES: Cc1cccc(/C=C/c2ccccc2)n1 [SIB 1893]

- IC50 (ERRα [1]): 17.8 µM
SMILES: COc1ccc(CCCOC(Cn2ccnc2)c2ccc(OC)cc2)cc1 (stereo not shown) [SKF 96365]

- EC50 (PGC-1α/ERRα [4]): 11.9 µM
SMILES: Nc1ccc(CCNc2ncnc3c2ncn3[C@@H]2O[C@H](CO)[C@@H](O)[C@H]2O)cc1 [N6-2-(4-Aminophenyl)ethyladenosine]

- EC50 (PGC-1α/ERRα [4]): 2.98 µM
SMILES: OC[C@H]1O[C@@H](n2cnc3c(NC4CCCC4)ncnc32)[C@H](O)[C@@H]1O [N6-Cyclopentyladenosine]

- EC50 (ERRα [3]; [7]): 8.41 µM
SMILES: Cc1ccc(O)c(N=Nc2ccccc2)n1 [SIB 1757]

- EC50 (ERRα [3]; [7]): 2.11 µM
SMILES: COc1cccc(-c2cc(=O)c3ccccc3o2)c1N [PD 98,059]

- EC50 (ERRα [3]; Homo sapiens): 2.37 µM
- EC50 (PGC-1α/ERRα [4]): 13.3 µM
SMILES: O=c1c2ccccc2nc2n1CCc1c-2[nH]c2ccccc12 [Rutaecarpine]
- AC50 (ERRα [3]; Homo sapiens): 2.34 µM
- AC50 (PGC-1α/ERRα [4]): 13.2 µM
- AC50 AhR ↑ [5]: 5.53 log10(M)*–1

- EC50 (ERRα [3]; Homo sapiens): 3.35 µM
- EC50 (PGC-1α/ERRα [4]): 11.9 µM
SMILES: Oc1ccc(/C=C/c2cc(O)cc(O)c2)cc1 [Resveratrol]
- AC50 (ERRα [3]; Homo sapiens): 3.31 µM
- AC50 (PGC-1α/ERRα [4]): 11.7 µM
